{"source": "ChEMBL document CHEMBL1201862", "about": "“PubChem BioAssay data set” (2004)", "key": {"Protein RecA": {"target": "T1, Protein RecA (Mycobacterium tuberculosis, UniProt P9WHJ3)", "T1 sequence (P9WHJ3 whole entry)": "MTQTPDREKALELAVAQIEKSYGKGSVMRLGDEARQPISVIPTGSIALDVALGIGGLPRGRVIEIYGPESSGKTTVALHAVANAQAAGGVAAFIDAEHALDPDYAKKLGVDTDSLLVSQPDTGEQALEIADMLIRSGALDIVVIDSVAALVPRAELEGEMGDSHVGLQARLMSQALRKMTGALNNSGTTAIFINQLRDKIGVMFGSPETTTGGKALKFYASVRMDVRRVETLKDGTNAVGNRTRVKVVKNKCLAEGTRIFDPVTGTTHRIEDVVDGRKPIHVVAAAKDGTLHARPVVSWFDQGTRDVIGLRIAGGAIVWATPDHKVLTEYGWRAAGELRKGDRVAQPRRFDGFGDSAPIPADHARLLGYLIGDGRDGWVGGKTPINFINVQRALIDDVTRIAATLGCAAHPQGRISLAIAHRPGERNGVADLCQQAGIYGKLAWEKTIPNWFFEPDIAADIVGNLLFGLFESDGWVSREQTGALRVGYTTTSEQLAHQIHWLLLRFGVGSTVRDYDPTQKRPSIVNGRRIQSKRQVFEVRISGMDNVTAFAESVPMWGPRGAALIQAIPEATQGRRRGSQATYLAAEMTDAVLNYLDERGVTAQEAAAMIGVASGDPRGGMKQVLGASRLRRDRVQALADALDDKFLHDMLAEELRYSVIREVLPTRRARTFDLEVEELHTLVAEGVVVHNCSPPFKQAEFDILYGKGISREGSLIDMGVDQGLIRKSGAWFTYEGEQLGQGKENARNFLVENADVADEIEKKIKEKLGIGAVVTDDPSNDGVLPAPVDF", "assay": "Fluorescence Cell-Free Homogeneous Dose Retest to Identify Inhibitors of RecA-Intein Splicing Activity. [Related pubchem assays (depositor defined):AID2097, AID2223, AID489010, AID492950]", "type": "functional"}, "Caspase-8": {"target": "Caspase-8 (Homo sapiens, UniProt Q14790)", "sequence (Q14790 217-374 limits assumed)": "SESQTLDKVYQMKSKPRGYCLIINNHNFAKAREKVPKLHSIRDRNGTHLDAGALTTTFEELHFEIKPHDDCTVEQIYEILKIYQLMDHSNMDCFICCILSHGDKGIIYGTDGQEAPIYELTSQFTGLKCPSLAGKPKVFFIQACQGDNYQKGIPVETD", "sequence (Q14790 385-479 limits assumed)": "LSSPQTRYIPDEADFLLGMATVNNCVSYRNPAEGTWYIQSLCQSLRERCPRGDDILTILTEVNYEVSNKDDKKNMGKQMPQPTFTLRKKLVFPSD", "assay": "caspase-8 inhibition counter-screen, dose response, selectivity assay for caspase-6 inhibitor project, biochemical, Z-IETD-R110 fluorescence, cherry-picked samples (AID 743294)"}, "[1]": {"assay": "Luminescence-based cell-based high throughput dose response assay to identify activators of the DAF-12 from the parasite S. stercoralis (ssDAF-12).", "type": "functional"}, "Caspase-9": {"target": "Caspase-9 (Homo sapiens, UniProt P55211)", "sequence (P55211 1-315 limits assumed)": "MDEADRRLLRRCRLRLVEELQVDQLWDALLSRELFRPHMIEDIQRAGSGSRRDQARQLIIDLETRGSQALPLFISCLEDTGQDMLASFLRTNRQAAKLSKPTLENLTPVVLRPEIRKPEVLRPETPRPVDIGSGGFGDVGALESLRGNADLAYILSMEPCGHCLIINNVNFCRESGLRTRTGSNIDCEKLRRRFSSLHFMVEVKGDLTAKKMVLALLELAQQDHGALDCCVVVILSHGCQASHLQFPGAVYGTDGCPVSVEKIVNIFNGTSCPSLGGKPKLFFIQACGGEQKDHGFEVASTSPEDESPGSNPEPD", "sequence (P55211 331-416 limits assumed)": "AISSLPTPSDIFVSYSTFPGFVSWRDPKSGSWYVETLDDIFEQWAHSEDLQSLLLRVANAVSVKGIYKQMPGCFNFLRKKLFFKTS", "assay": "caspase-9 enzyme inhibition, dose response, selectivity assay for caspase-6 inhibitor project, biochemical, fluorescence, plate reader, cherry-picked samples (AID 743293)"}, "Caspase-6": {"target": "T2, Caspase-6 (Homo sapiens, UniProt P55212)", "T2 sequence (P55212 whole entry)": "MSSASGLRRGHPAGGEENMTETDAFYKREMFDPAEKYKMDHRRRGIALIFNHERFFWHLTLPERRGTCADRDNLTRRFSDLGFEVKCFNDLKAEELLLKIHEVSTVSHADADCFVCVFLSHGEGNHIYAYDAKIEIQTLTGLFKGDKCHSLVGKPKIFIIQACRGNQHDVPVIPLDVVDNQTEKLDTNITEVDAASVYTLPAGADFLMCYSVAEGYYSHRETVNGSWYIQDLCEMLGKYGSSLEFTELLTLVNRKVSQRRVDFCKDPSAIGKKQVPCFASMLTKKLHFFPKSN", "assay": "human caspase-6 inhibitors, dose response, biochemical, VEID-R110 fluorescence, cherry-pick (AID 720632)"}, "[2]": {"target": "T3, Replicative DNA helicase DnaB (Mycobacterium tuberculosis, UniProt P9WMR3)", "T3 sequence (P9WMR3 whole entry)": "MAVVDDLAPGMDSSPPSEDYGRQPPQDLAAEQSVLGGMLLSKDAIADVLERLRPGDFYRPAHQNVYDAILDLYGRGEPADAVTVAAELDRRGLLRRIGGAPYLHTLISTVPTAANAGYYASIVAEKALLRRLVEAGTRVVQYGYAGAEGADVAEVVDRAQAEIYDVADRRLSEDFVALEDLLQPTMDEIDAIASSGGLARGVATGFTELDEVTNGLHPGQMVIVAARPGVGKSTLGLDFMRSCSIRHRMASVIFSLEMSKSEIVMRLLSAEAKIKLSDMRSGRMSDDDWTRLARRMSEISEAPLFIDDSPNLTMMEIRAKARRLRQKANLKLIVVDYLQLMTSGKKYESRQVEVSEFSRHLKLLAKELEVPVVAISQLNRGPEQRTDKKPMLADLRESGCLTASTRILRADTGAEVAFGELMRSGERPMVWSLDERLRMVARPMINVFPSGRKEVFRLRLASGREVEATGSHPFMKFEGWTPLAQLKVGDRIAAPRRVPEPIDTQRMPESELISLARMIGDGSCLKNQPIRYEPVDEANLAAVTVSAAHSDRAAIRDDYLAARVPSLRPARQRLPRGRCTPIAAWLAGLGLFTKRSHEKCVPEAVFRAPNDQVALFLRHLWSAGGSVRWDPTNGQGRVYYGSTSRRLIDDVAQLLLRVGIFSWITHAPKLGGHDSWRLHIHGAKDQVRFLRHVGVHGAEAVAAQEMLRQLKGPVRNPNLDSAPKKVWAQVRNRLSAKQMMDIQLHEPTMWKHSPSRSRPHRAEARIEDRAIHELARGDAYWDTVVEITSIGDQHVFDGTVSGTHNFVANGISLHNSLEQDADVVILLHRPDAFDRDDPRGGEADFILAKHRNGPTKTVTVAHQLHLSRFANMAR", "assay": "DnaB intein splicing inhibitors, dose response, biochemical, cell-free fluorescence (AID 449749)", "type": "functional"}, "[3]": {"target": "T4, Oxysterols receptor LXR-beta (Homo sapiens, UniProt P55055)", "T4 sequence (P55055 whole entry)": "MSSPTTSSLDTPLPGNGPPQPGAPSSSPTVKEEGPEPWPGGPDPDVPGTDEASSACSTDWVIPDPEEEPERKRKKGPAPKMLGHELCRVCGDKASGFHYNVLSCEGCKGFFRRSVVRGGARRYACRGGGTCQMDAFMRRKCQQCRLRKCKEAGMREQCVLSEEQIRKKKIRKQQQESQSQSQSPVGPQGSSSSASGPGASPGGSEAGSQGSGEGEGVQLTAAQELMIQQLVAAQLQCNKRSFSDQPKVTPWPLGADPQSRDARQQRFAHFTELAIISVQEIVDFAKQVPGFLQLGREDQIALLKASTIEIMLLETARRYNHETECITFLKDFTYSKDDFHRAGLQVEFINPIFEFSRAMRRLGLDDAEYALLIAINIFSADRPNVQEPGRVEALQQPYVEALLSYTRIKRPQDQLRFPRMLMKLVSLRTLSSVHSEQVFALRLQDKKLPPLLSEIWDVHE", "assay": "LXR agonists, Gal4 luciferase reporter, dose response, counter-screen for ssDAF-12 agonist project, cell-based, luminescence, HEK293, S. stercoralis campaign (AID 720737)", "type": "functional", "settings": "read-out: IC50 (the source's name)"}, "[4]": {"target": "T5, Mannose-6-phosphate isomerase (Homo sapiens, UniProt P34949)", "T5 sequence (P34949 whole entry)": "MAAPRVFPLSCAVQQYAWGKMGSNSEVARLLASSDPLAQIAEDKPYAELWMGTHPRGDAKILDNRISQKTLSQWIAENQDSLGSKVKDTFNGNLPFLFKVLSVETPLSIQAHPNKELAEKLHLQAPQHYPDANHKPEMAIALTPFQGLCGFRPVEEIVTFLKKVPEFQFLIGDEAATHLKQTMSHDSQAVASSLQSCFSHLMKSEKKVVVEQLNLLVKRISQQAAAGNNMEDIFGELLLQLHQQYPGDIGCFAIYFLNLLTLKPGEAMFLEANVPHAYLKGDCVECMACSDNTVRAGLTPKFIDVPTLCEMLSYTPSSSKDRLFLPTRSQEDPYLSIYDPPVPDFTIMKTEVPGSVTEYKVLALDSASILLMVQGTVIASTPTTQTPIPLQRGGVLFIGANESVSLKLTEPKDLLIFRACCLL", "assay": "human PMI inhibitors, high substrate, primary screen, biochemical, fluorescence intensity, high mannose 6-phosphate (AID 1220)"}, "[5]": {"target": "T6, Low molecular weight phosphotyrosine protein phosphatase (Homo sapiens, UniProt P24666)", "T6 sequence (P24666 whole entry)": "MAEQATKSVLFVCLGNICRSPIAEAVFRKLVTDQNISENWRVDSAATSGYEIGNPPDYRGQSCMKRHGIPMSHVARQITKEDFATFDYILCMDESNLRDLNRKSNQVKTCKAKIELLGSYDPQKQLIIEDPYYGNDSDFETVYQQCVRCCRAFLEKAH", "assay": "LMPTP phosphatase inhibitors, dose response, biochemical, OMFP substrate, fluorescence intensity, set 2 (AID 743307)", "type": "functional"}, "[6]": {"target": "T6, Low molecular weight phosphotyrosine protein phosphatase", "assay": "LMPTP phosphatase inhibitors, colorimetric pNPP readout, dose response, orthogonal assay, biochemical, absorbance, pNPP substrate, LMPTP-A isoform, set 2 (AID 743308)", "type": "functional"}, "[7]": {"assay": "inhibitors of intracellular T. cruzi replication, confirmation, NIH3T3 host cells, beta-gal luminescence (AID 2044);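 note: luminescent beta-galactosidase reporter signal from transgenic T. cruzi replicating inside host cells; inhibitors lower the luminescence signal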", "type": "functional, cell-based"}, "[8]": {"assay": "cytotoxicity toward NIH3T3 fibroblasts, dose response, counter-screen, cell-based, ATP luminescence, mouse fibroblasts (AID 2010);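 note: cells exposed to compound for about 90 hours before reading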", "type": "functional"}, "[9]": {"target": "Voltage-gated inwardly rectifying potassium channel KCNH2 (Homo sapiens, UniProt Q12809)", "sequence (Q12809 whole entry)": "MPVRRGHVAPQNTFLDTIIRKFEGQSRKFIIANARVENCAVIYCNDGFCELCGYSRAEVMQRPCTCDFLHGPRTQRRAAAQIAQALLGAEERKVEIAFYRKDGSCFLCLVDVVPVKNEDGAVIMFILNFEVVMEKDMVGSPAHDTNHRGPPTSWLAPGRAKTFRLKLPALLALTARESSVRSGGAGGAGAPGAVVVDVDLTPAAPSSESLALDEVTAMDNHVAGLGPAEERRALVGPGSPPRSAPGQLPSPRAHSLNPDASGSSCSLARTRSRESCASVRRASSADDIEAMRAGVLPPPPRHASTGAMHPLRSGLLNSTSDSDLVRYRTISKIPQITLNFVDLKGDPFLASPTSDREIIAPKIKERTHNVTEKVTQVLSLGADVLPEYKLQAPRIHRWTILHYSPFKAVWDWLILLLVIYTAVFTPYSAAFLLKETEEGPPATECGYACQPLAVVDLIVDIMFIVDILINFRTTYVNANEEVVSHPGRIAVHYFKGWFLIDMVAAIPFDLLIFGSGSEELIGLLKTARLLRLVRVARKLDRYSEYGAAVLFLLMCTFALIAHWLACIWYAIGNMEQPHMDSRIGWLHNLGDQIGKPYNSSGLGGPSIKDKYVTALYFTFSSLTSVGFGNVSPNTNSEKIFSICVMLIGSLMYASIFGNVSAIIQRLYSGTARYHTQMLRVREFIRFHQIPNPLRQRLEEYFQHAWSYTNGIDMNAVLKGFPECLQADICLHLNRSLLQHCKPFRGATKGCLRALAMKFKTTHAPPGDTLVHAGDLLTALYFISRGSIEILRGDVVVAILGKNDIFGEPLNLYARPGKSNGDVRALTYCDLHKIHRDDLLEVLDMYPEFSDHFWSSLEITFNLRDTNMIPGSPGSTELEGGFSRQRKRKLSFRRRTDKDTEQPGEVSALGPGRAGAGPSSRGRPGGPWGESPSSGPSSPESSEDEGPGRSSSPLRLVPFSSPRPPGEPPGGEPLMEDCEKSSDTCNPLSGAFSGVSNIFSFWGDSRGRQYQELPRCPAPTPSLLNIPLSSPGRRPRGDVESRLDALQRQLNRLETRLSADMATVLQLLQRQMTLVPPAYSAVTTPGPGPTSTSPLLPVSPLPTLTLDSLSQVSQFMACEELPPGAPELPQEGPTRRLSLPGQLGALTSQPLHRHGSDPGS", "assay": "hERG protection from proarrhythmic block, potency, dose response, cell-based, thallium flux (AID 2121)", "type": "ADME"}, "[10]": {"assay": "Artemis endonuclease inhibitor potency, dose response, biochemical, fluorescence intensity (AID 720701)", "type": "functional"}, "[11]": {"target": "RNA-editing ligase 1, mitochondrial (Trypanosoma brucei brucei, UniProt P86926)", "sequence (P86926 whole entry)": "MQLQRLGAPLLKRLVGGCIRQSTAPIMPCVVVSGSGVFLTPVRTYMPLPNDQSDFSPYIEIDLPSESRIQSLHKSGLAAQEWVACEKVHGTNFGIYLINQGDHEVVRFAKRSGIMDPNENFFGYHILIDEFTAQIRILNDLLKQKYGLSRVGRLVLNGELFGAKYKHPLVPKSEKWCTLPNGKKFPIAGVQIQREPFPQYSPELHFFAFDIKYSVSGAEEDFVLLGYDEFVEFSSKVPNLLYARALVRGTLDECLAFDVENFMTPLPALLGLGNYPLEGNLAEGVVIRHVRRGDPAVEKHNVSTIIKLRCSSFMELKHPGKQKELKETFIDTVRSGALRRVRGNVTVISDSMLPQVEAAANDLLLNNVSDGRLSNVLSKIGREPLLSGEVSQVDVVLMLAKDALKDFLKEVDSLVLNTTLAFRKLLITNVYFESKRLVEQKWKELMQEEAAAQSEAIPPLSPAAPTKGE", "assay": "TbREL1 ligase inhibitors, dose response, biochemical, fluorescence, Trypanosoma brucei (AID 1117295)", "type": "functional"}}, "note": "Active and inactive are the calls of the source."}
{"smiles": "Nc1cc2nn(-c3ccccc3)nc2cc1Cl", "values": [{"measurement": "EC50", "setting": "Protein RecA", "result": "3.48 µM (active)"}, {"measurement": "AC50", "setting": "Caspase-8", "result": "12.7 µM (active)"}, {"measurement": "IC50", "setting": "[1]", "result": "> 67.5 µM (inactive)"}, {"measurement": "AC50", "setting": "Caspase-9", "result": "29.9 µM (active)"}, {"measurement": "AC50", "setting": "Caspase-6", "result": "2 µM (active)"}, {"measurement": "AC50", "setting": "[2]", "result": "16.5 µM (active)"}, {"measurement": "EC50", "setting": "[3]", "result": "> 67.5 µM (inactive)"}, {"measurement": "IC50", "setting": "[4]", "result": "> 50 µM (not active)"}]}
{"smiles": "Clc1cccc(-c2cc(NCCCN3CCCCC3)c3ccccc3n2)c1", "values": [{"measurement": "IC50", "setting": "[5]", "result": "1.12 µM (active)"}, {"measurement": "IC50", "setting": "[6]", "result": "1.85 µM (active)"}]}
{"smiles": "Cc1cc2nc3n(c2cc1C)CCCN3", "values": [{"measurement": "EC50", "setting": "[7]", "result": "< 0.1 µM (active)"}, {"measurement": "EC50", "setting": "[8]", "result": "> 60 µM (not active)"}, {"measurement": "EC50", "setting": "cells", "result": "0.121 µM (active)"}]}
{"smiles": "COc1ccc(OC)c(NC(=O)C(=O)NNC(=O)c2cccs2)c1", "values": [{"measurement": "EC50", "setting": "[9]", "result": "3.5 µM (active)"}]}
{"smiles": "Cc1cc(C)n(-c2nc(NCC(C)O)c3c4c(sc3n2)CCCC4)n1", "note": "(stereo unspecified)", "values": [{"measurement": "IC50", "setting": "[10]", "result": "15 µM (active)"}]}
{"smiles": "COC(=O)C1=C(C)N(Cc2ccc(C(F)(F)F)cc2)C(NCc2ccc3c(c2)OCO3)=NC1c1ccccc1C(F)(F)F", "note": "(stereo unspecified)", "values": [{"measurement": "IC50", "setting": "[11]", "result": "> 96.6 µM (inactive)"}]}
